These results are taken from US20240393292A1, “ALLERGY ANTIGEN AND EPITOPE THEREOF” (HOYU CO., LTD., priority 2019, published 2024).

In this assay the test system is IgE antibodies from patients. In words: Wheat epitope mapping (2): overlapping 10-amino-acid peptide fragments shifted by one amino acid.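 Also: key = sequence deemed particularly important within the common 15-residue sequence.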 Particulars: sequence without X. The format is binding, human. In a few lines: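 Residual binding was banded as <30% none, 30–<50% poor, 50–<70% somewhat poor and ≥70% retained, relative to the parent overlapping sequence set to 100%. Values were chemiluminescent IgE signals from patient sera after subtracting secondary-antibody-only controls. The peptides were spot-synthesised 10-mers shifted by one amino acid.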

The mark [1] stands for this setting: serum of patient P50 (child, general immediate type allergy to wheat).
Setting [2] is: serum of patient G7 (adult, general immediate type allergy to wheat).
[3] abbreviates: serum of patient P52 (child, general immediate type allergy to wheat).

With “1557 (QVPLVQQQQF; REGION 1..10: note = epitope) [compound 1557]”, the “Rank of partial sequence as epitope binding to IgE antibody” value (“Rank of partial sequence” for short) under setting [1] was “More preferably”.
On the same count and under the same terms, as for “1558 (PLVQQQQF; REGION 1..8: note = epitope) [compound 1558]”, the entry is “Preferably”.
On to “1560 (QQQFLGQQ; REGION 1..8: note = epitope) [compound 1560]”, for which the “Rank of partial sequence” value under setting [1] is “Key”.
On to “1562 (QVPLVQQQQF; REGION 1..10: note = epitope) [compound 1562]”, for which the “Rank of partial sequence” value under setting [2] is “More preferably”.
Take “1563 (QVPLVQQQQ; REGION 1..9: note = epitope) [compound 1563]”: the “Rank of partial sequence” value under setting [2] was “Preferably”.
Still for that read-out and setting: the entry for “1565 (QQQQFLGQ; REGION 1..8: note = epitope) [compound 1565]” is “Key”.
For the substance “1567 (PFPQTQQ; REGION 1..7: note = epitope) [compound 1567]”, the “Rank of partial sequence” value (serum of patient P3 (WDEIA)) was “Preferably”.
Still for that read-out and setting: the entry for “1568 (PFPQTQ; REGION 1..6: note = epitope) [compound 1568]” is “Key”.
As to “1573 (PQQPQQPFP; REGION 1..9: note = epitope) [compound 1573]”, the “Rank of partial sequence” value (serum of patient P16 (WDEIA)) was “Preferably”.
On the same count and under the same terms, as for “1575 (QQPQQ; REGION 1..5: note = epitope) [compound 1575]”, the entry is “Preferably”; as for “1577 (PFPQTQQ; REGION 1..7: note = epitope) [compound 1577]”, “More preferably”.
Take “1580 (QPFPQTQQPQ; REGION 1..10: note = epitope) [compound 1580]”: the “Rank of partial sequence” value (serum of patient P20 (WDEIA)) is given as “Further preferably”.
The same measure, in the same setting: as for “1581 (PFPQTQQPQ; REGION 1..9: note = epitope) [compound 1581]”, the entry is “More preferably”.
The same measure, in the same setting: as for “1582 (FPQTQQPQ; REGION 1..8: note = epitope) [compound 1582]”, the entry is “Preferably”.
On to “1586 (QQPFPQTQQP; REGION 1..10: note = epitope) [compound 1586]”, for which the “Rank of partial sequence” value (serum of patient P21 (WDEIA)) is recorded as “More preferably”.
Consider “1590 (QPFPQTQQPQ; REGION 1..10: note = epitope) [compound 1590]”, for which the “Rank of partial sequence” value under setting [1] is reported as “Preferably”.
For “1591 (QPFPQTQQP; REGION 1..9: note = epitope) [compound 1591]”, the “Rank of partial sequence” value under setting [1] is listed as “Key”.
Regarding “1594 (QPQQPFP; REGION 1..7: note = epitope) [compound 1594]”, the “Rank of partial sequence” value under setting [3] is given as “Further preferably”.
With “1595 (QPQQPF; REGION 1..6: note = epitope) [compound 1595]”, under setting [3], the “Rank of partial sequence” value is given as “More preferably”.
Take “1601 (AQLEAIRSL; REGION 1..9: note = epitope) [compound 1601]”: where the note is “serum of patient P3 (WDEIA)”, the “Rank of partial sequence” value was “Preferably”.
On to “1605 (AQLEAIRS; REGION 1..8: note = epitope) [compound 1605]”, for which the “Rank of partial sequence” value (serum of patient P10 (WDEIA)) is recorded as “More preferably”.
As for “1611 (YNPD; REGION 1..4: note = epitope) [compound 1611]”, for the setting “serum of patient P8 (WDEIA)”, the “Rank of partial sequence” value was “Key”.
“1613 (YNPD; REGION 1..4: note = epitope) [compound 1613]”: the “Rank of partial sequence” value (serum of patient P15 (WDEIA)) is recorded as “Key”.
Regarding “1614 (YNPD; REGION 1..4: note = epitope) [compound 1614]”, the “Rank of partial sequence” value (serum of patient P16 (WDEIA)) is on record as “Key”.
For “1615 (YNPD; REGION 1..4: note = epitope) [compound 1615]”, the “Rank of partial sequence” value (serum of patient P17 (WDEIA)) was “Key”.
Same read-out and setting: as for “1616 (FVPISG; REGION 1..6: note = epitope) [compound 1616]”, the entry is “Key”.
